Holding throughout (type): in vivo, Kunming mice
Assay [1] concerns HCMV infected mice. In words: IL-2 level in serum of HCMV infected mice (ELISA kit). The conditions noted are these: for IL-2 level compared with the positive drug control group (in words): ganciclovir 45.5 mg/kg/d as comparator; for IL-2 concentration: 21 days. Here is the method:
(§1) The mice were injected with HCMV10^−3 (0.1 ml/mouse) through the caudal vein of mouse tails; 0.9% normal saline is injected to the normal control group, 0.1 ml/piece; and intragastric administration is started according to the determined dosage on the second day of infection, with 21 days of medication.
Selecting six mice in each group randomly for sampling, 40 min later after the last administration, picking eyeballs to take blood, and collecting the blood by a centrifugal tube Performing high-speed centrifugation for 5 min at 3000 r/min after blood coagulation, and taking the serum. The IL-2 in the serum is measured according to the manual of an ELISA kit.
1L-2, namely interleukin-2, is also named T cell growth factor (TCGF), is a cell factor with wide biological activity, which is generated by activated CD4+Th1 cells, and can promote the proliferation of Th0 and CTL, thus being an important factor for regulating and controlling immune responses.
(An ELISA detects its analyte on a solid surface through an enzyme-linked reagent.)

The subject of assay [2] is HCMV infected mice. The conditions noted are these: for Level of serum hemolysin antibodies compared with the positive drug control group (in words): HCMV infected mice, ganciclovir 45.5 mg/kg/d as comparator; for Hemolysin (OD value): serum of HCMV infected mice, 540 nm, 21 days. On the procedure: as §1
40 min later after the last administration, picking eyeballs to take blood, collecting serum, diluting the serum for 100 times with normal saline, uniformly mixing 1 mL of the diluted serum, 0.5 mL of 5% chicken erythrocyte suspension and 0.5 mL of 10% complement (guinea pig serum), incubating for 30 min In 37° C. incubator, setting 0° C. refrigerator for 30 min to stop the reaction. Centrifugating, taking the supernatant, and then measuring the optical density (OD value) at 540 nm by spectrophotometer.

The subject of assay [3] is HCMV infected mice. In words: Spleen and thymus gland indexes of HCMV infected mice. The settings on record: for Effect on weight of the immune organs of HCMV infected mice (in words): thymus glands and spleens; for Effect on weight of the immune organs of HCMV infected mice (in words) / Spleen indexes / Thymus gland indexes: day 21. Here is the method: as §1
(§2) During the experiment. Animals were weighed and the thymus and spleen were weighed on the 21st day of administration, and their indices (thymus index, spleen index, weight of thymus and spleen organs per 10 g body weight (mg)) were measured.
Thymus glands and spleens are important immune organs, with the organ indexes reflecting the strength of immune functions of organisms to a certain degree. The thymus glands have the main functions of generating T-lymphocytes and secreting thymosin, and mainly take part in cellular immunity; and abundant lymphocytes and macrophages are contained in the spleens. The weight of the thymus glands and the spleens is related to functions thereof as well as the quantity of immune cells therein, and the height depends on the proliferation degree of the lymphocytes therein.

The test system of assay [4] is HCMV infected mice. Description: Survival rate and weight of HCMV infected mice. The settings on record: for Toxic symptoms, death and weight growth of treated HCMV infected mice (in words): 21 days of intragastric administration, compared with model group; for Average animal weight (g) Termination of treatment: HCMV infected mice; for Average animal weight (g) Termination of treatment / Animal number (n) Termination of treatment: 21 days; for Animal number (n) Termination of treatment: surviving of 10 HCMV infected mice. On the procedure:
1.3 Virus standard strain HCMVADI69 and the proliferation of species are introduced in October 1999 from Virus Seed Room of Virus Institute in Chinese Academy of Preventive Medicine. […] HEL cultural supernatant reaching +++−++++ in the cell lesions is discarded and lightly washed for 3 times by PBS; double distilled water is added; freeze-thawing is performed for 3 times at −20° C.; vigorous blowing and beating are performed; 10,000 r/min centrifugation is performed at 4° C. for 20 min; and the supernatant is collected to obtain the standard virus strain.
as §1, §2
Recording the number of dead animals in the experimental process.
All the mice are subjected to the medicines continuously for 21 days in the whole experimental process.

[5] abbreviates: high-dosage group 0.3 mg/kg/d intragastric.
Where [6] appears, read: low-dosage group 0.012 mg/kg/d intragastric.
The mark [7] stands for this setting: medium-dosage group 0.06 mg/kg/d intragastric.
Setting [8] is: HCMV infected mice, high-dosage group 0.3 mg/kg/d intragastric.
The mark [9] stands for this setting: HCMV infected mice, low-dosage group 0.012 mg/kg/d intragastric.
The mark [10] stands for this setting: HCMV infected mice, medium-dosage group 0.06 mg/kg/d intragastric.

Read-outs that look alike come from different tables or passages of the source.

This note sets out measurements from patent publication US10675317B2, “Use of ginseng extract, ginsenoside and ginsenoside derivative in the preparation of medicine or health care product for treating cytomegalovirus infection disorders” (priority 2015, dated 2020).

In the case of “20(R)-ginsenoside Rg3 8-N-butyrate [Ginsenoside rg3 derivatives]”, the “IL-2 level compared with the model group (in words)” value in assay [1] was “higher than those of the model group”. Besides, the “IL-2 level compared with the positive drug control group (in words)” value in assay [1] was “superior to that of the positive drug control group”. In addition, the “IL-2 concentration” value amounted to 29.32 ± 4.09 pg/mL in assay [1] (setting [5]), 27.99 ± 5.38 pg/mL in assay [1] (setting [6]) and 28.62 ± 4.21 pg/mL in assay [1] (setting [7]). For the same compound, the “Level of serum hemolysin antibodies compared with the positive drug control group (in words)” value in assay [2] is on record as “superior to that of the positive drug control group”. Further, the entries for the “Hemolysin (OD value)” value in assay [2] (setting [5]), in assay [2] (setting [6]) and in assay [2] (setting [7]) were 0.19 ± 0.11 OD value, 0.17 ± 0.08 OD value and 0.18 ± 0.07 OD value, respectively. Besides, the “Effect on weight of the immune organs of HCMV infected mice (in words)” value in assay [3] is “obvious weight increasing effect”. In addition, the “Toxic symptoms, death and weight growth of treated HCMV infected mice (in words)” value in assay [4] is “mild toxic symptom, less death and good weight growth”. The “Average animal weight (g) Termination of treatment” value (from here on “Average animal weight”) came out at 27.7 ± 1.84 g in assay [4] (setting [5]), 26.4 ± 0.18 g in assay [4] (setting [6]) and 27.1 ± 0.49 g in assay [4] (setting [7]). In addition, the figures for the “Animal number (n) Termination of treatment” value (“Animal number (n) Termination” below) in assay [4] (setting [5]), in assay [4] (setting [6]) and in assay [4] (setting [7]) were 9, 6 and 7, respectively.

`Nc1nc(O)c2ncn(COC(CO)CO)c2n1` [Positive drug control group, ganciclovir, reference compound]: the “IL-2 concentration” value in assay [1] (ganciclovir 45.5 mg/kg/d) was found to be 24.54 ± 2.66 pg/mL. For the same compound, the “Hemolysin (OD value)” value in assay [2] (ganciclovir 45.5 mg/kg/d) was 0.11 ± 0.04 OD value. In assay [4] (ganciclovir 45.5 mg/kg/d), the “Average animal weight” value is listed as 26.9 ± 3.97 g; the “Survival number, weight growth and symptom expression compared with the test drug groups (in words)” value is “totally approximate to those of the large-dosage groups”; the “Animal number (n) Termination” value is on record as 8.

Regarding `CC(C)=CCC[C@](C)(O)[C@H]1CC[C@]2(C)[C@@H]1[C@H](O)C[C@@H]1[C@@]3(C)CC[C@H](O[C@@H]4O[C@H](CO)[C@@H](O)[C@H](O)[C@H]4O[C@@H]4O[C@H](CO)[C@@H](O)[C@H](O)[C@H]4O)C(C)(C)[C@@H]3CC[C@]12C` [Ginsenoside rg3, 20(R)-ginsenoside Rg3], the “IL-2 level compared with the model group (in words)” value in assay [1] is on record as “higher than those of the model group”. Besides, the “IL-2 level compared with the positive drug control group (in words)” value in assay [1] is recorded as “superior to that of the positive drug control group”. Further, the results for the “IL-2 concentration” value in assay [1] (setting [5]), in assay [1] (setting [6]) and in assay [1] (setting [7]) were 28.64 ± 4.66 pg/mL, 27.02 ± 6.39 pg/mL and 27.19 ± 5.60 pg/mL, respectively. Moreover, in assay [2], the “Level of serum hemolysin antibodies compared with the positive drug control group (in words)” value was “superior to that of the positive drug control group”. For the same compound, the entries for the “Hemolysin (OD value)” value in assay [2] (setting [5]), in assay [2] (setting [6]) and in assay [2] (setting [7]) were 0.18 ± 0.03 OD value, 0.15 ± 0.08 OD value and 0.16 ± 0.05 OD value, respectively. In addition, in assay [3] (HCMV infected mice), the “Spleen indexes and thymus gland indexes compared with the model group (in words)” value is on record as “significantly different from those of the model group”. Besides, the Spleen indexes in assay [3] (setting [8]) stood at 0.061 ± 0.021; in assay [3] (setting [9]) it was 0.056 ± 0.045; in assay [3] (setting [10]), 0.057 ± 0.013. For the same compound, the Thymus gland indexes in assay [3] (setting [8]) is recorded as 0.031 ± 0.009; in assay [3] (setting [9]), 0.027 ± 0.011; in assay [3] (setting [10]), 0.029 ± 0.021. Moreover, the “Effect on weight of the immune organs of HCMV infected mice (in words)” value in assay [3] is recorded as “obvious weight increasing effect”. For the same compound, the “Toxic symptoms, death and weight growth of treated HCMV infected mice (in words)” value in assay [4] is “mild toxic symptom, less death and good weight growth”. The “Average animal weight” value in assay [4] (setting [5]) is on record as 26.6 ± 1.83 g; in assay [4] (setting [6]) it was 25.1 ± 0.11 g; in assay [4] (setting [7]), 25.8 ± 0.54 g. Also, the results for the “Animal number (n) Termination” value in assay [4] (setting [5]), in assay [4] (setting [6]) and in assay [4] (setting [7]) were 8, 6 and 6, respectively.
